Experimental data taken from patent publication US5840684A, “Glycopeptide antibiotic derivatives” (Eli Lilly and Company, priority 1995, dated 1998).
Values after ≈ are worked out from the molar mass of the structure shown.

Tests used:
Lactobacillus confusus = assay: agar dilution MIC, lactic acid bacteria; type: cell-based; details: Lactobacillus confusus, brain-heart infusion agar
Leuconostoc lactis = assay: agar dilution MIC, lactic acid bacteria; type: cell-based; details: Leuconostoc lactis (mean of 2), brain-heart infusion agar
[1] = system: Staphylococcus aureus SA1199A; assay: broth micro-dilution MIC; type: cell-based
Description: (§1) The MIC's were determined using a standard broth micro-dilution assay.

Entercoccus faecium 276 = assay: broth micro-dilution MIC; type: cell-based
Description: as §1

[2] = system: Staphylococcus aureus 491; assay: broth micro-dilution MIC; type: cell-based
Description: as §1

[3] = system: Staphylococcus aureus 447; assay: broth micro-dilution MIC; type: cell-based
Description: as §1

[4] = system: Staphylococcus aureus 446; assay: broth micro-dilution MIC; type: cell-based
Description: as §1

[5] = system: Entercoccus faecium 180-1; assay: broth micro-dilution MIC; type: cell-based
Description: as §1

[6] = system: Staphylococcus aureus X400; assay: broth micro-dilution MIC; type: cell-based
Description: as §1

[7] = system: Staphylococcus aureus SA1199; assay: broth micro-dilution MIC; type: cell-based
Description: as §1

[8] = system: Staphylococcus aureus X778; assay: broth micro-dilution MIC; type: cell-based
Description: as §1

[9] = system: vancomycin-resistant enterococci; assay: broth micro-dilution, mean geometric MIC; type: cell-based, Enterococcus faecium and Enterococcus faecalis; details: enterococci, 24-hour incubation
Pediococcus acidilacti = assay: agar dilution MIC, lactic acid bacteria; type: cell-based; details: Pediococcus acidilacti (mean of 10), brain-heart infusion agar
Streptococcus pyogenes = assay: mouse protection, experimentally-induced infection; type: in vivo; details: mice infected with Streptococcus pyogenes, two doses
[10] = system: Enterococcus gallinarum 245; assay: broth micro-dilution MIC; type: cell-based; details: Enterococcus gallinarum 245
Description: (§2) The formula I compounds have in vitro and in vivo activity against Gram-positive pathogenic bacteria. The MIC's were determined using a standard broth micro-dilution assay.

Entercoccus faecium 2041 = assay: broth micro-dilution MIC; type: cell-based; details: Entercoccus faecium 2041
Description: as §2

Entercoccus faecium 180 = assay: broth micro-dilution MIC; type: cell-based; details: Entercoccus faecium 180
Description: as §2

[11] = system: Staphylococcus haemolyticus 415; assay: broth micro-dilution MIC; type: cell-based
Description: as §2

[12] = system: Staphylococcus epidermidis 270; assay: broth micro-dilution MIC; type: cell-based
Description: as §2

[13] = system: Staphylococcus haemolyticus 105; assay: broth micro-dilution MIC; type: cell-based
Description: as §2

Streptococcus pneumoniae = assay: mouse protection, experimentally-induced infection; type: in vivo; details: mice infected with Streptococcus pneumoniae, two doses
[14] = system: Staphylococcus aureus SA1199B; type: cell-based
Description: as §1

[15] = system: Staphylococcus aureus S13E; type: cell-based
Description: as §1

[16] = system: Leuconostoc pseudomesenteroides; assay: agar dilution MIC, lactic acid bacteria; type: cell-based; details: brain-heart infusion agar
[17] = system: vancomycin-susceptible enterococci; assay: broth micro-dilution, mean geometric MIC; type: cell-based, Enterococcus faecium and Enterococcus faecalis; details: enterococci, 24-hour incubation
Pediococcus pentosaceus = assay: agar dilution MIC, lactic acid bacteria; type: cell-based; details: Pediococcus pentosaceus (mean of 2), brain-heart infusion agar
Stapylococcus aureus = assay: mouse protection, experimentally-induced infection; type: in vivo; details: mice infected with Stapylococcus aureus, two doses
[18] = system: Leuconostoc mesenteroides; assay: agar dilution MIC, lactic acid bacteria; type: cell-based; details: Leuconostoc mesenteroides (mean of 4), brain-heart infusion agar
Leuconostoc citreum = assay: agar dilution MIC, lactic acid bacteria; type: cell-based; details: brain-heart infusion agar
[19] = system: Staphylococcus aureus 489; assay: broth micro-dilution MIC; type: cell-based
Description: as §1

[20] = system: Haemophilus influenzae RD; assay: broth micro-dilution MIC; type: cell-based; details: Haemophilus influenzae RD
Description: as §2

[21] = system: Streptococcus pyogenes C203; assay: broth micro-dilution MIC; type: cell-based
Description: as §1

Escherichia coli EC14 = assay: broth micro-dilution MIC; type: cell-based
Description: as §2

[22] = system: Streptococcus pneumoniae P1; assay: broth micro-dilution MIC; type: cell-based
Description: as §2

SMILES	MIC (Lactobacillus confusus) [µg/mL]	MIC (Leuconostoc lactis) [µg/mL]	MIC [1]	MIC (Entercoccus faecium 276) [µg/mL]	MIC [5] [µg/mL]	MIC [6] [µg/mL]	MIC [7] [µg/mL]	MIC [8] [µg/mL]	mean geometric MIC, Vancomycin Resistant Strains [9] [µg/mL]	MIC (Pediococcus acidilacti) [µg/mL]	ED50 (Streptococcus pyogenes) [mg/kg/2]	MIC [11] [µg/mL]	MIC [13] [µg/mL]	ED50 (Streptococcus pneumoniae) [mg/kg/2]	MIC [16] [µg/mL]	mean geometric MIC, Vancomycin Sensitive Strains [17] [µg/mL]	MIC (Pediococcus pentosaceus) [µg/mL]	ED50 (Stapylococcus aureus) [mg/kg/2]	MIC [18] [µg/mL]	MIC (Leuconostoc citreum) [µg/mL]	further results
CNC(CC(C)C)C(=O)NC1C(=O)NC(CC(N)=O)C(=O)NC2C(=O)NC3C(=O)NC(C(=O)NC(C(=O)O)c4cc(O)cc(O)c4-c4cc3ccc4O)C(OC3CC(C)(N)C(O)C(C)O3)c3ccc(c(Cl)c3)Oc3cc2cc(c3OC2OC(CO)C(O)C(O)C2OC2CC(C)(NCc3ccc(C=Cc4ccccc4)cc3)C(O)C(C)O2)Oc2ccc(cc2Cl)C1O (stereo not drawn) [Compound 29]	8 (≈ 4.48 µM)	5.7 (≈ 3.19 µM)	≤ 0.06 µg/mL	0.25 (≈ 0.14 µM)	≤ 0.06	0.25 (≈ 0.14 µM)	0.25 (≈ 0.14 µM)	≤ 0.06	0.21	4.0 (≈ 2.24 µM)	0.1	1 (≈ 0.56 µM)	4 (≈ 2.24 µM)	0.054	16 (≈ 8.97 µM)	0.031	8.0 (≈ 4.48 µM)	0.088	6.7 (≈ 3.75 µM)	32 (≈ 17.9 µM)	MIC [2]: 0.25 µg/mL (≈ 0.14 µM); MIC [3]: 0.25 µg/mL (≈ 0.14 µM); MIC [4]: 1 µg/mL (≈ 0.56 µM); MIC [10]: 0.25 µg/mL (≈ 0.14 µM); MIC (Entercoccus faecium 2041): 0.25 µg/mL (≈ 0.14 µM); MIC (Entercoccus faecium 180): 0.25 µg/mL (≈ 0.14 µM); MIC [12]: 0.5 µg/mL (≈ 0.28 µM); MIC [14]: 0.25 µg/mL (≈ 0.14 µM); MIC [15]: 1 µg/mL (≈ 0.56 µM)
CNC(CC(C)C)C(=O)NC1C(=O)NC(CC(N)=O)C(=O)NC2C(=O)NC3C(=O)NC(C(=O)NC(C(=O)O)c4cc(O)cc(O)c4-c4cc3ccc4O)C(OC3CC(C)(N)C(O)C(C)O3)c3ccc(c(Cl)c3)Oc3cc2cc(c3OC2OC(CO)C(O)C(O)C2OC2CC(C)(NCc3ccc4c(c3)Cc3ccccc3-4)C(O)C(C)O2)Oc2ccc(cc2Cl)C1O (stereo not drawn) [Compound 32]	16 (≈ 9.04 µM)	16 (≈ 9.04 µM)	≤ 0.06 µg/mL	0.125 (≈ 0.0706 µM)	≤ 0.06	0.5 (≈ 0.282 µM)	1 (≈ 0.565 µM)	0.5 (≈ 0.282 µM)	0.50	12.1 (≈ 6.83 µM)	0.034	4 (≈ 2.26 µM)	4 (≈ 2.26 µM)	0.039	–	0.089	16 (≈ 9.04 µM)	0.055	16 (≈ 9.04 µM)	64 (≈ 36.1 µM)	MIC [3]: 0.5 µg/mL (≈ 0.282 µM); MIC [4]: 1 µg/mL (≈ 0.565 µM); MIC [19]: 1 µg/mL (≈ 0.565 µM); MIC [20]: > 64 µg/mL; MIC [12]: 1 µg/mL (≈ 0.565 µM); MIC [15]: 1 µg/mL (≈ 0.565 µM)
CNC(CC(C)C)C(=O)NC1C(=O)NC(CC(N)=O)C(=O)NC2C(=O)NC3C(=O)NC(C(=O)NC(C(=O)O)c4cc(O)cc(O)c4-c4cc3ccc4O)C(OC3CC(C)(N)C(O)C(C)O3)c3ccc(c(Cl)c3)Oc3cc2cc(c3OC2OC(CO)C(O)C(O)C2OC2CC(C)(NCc3ccc(SC)cc3)C(O)C(C)O2)Oc2ccc(cc2Cl)C1O (stereo not drawn) [Compound 41]	64 (≈ 37 µM)	91 (≈ 52.6 µM)	–	–	–	–	–	–	0.84	71 (≈ 41.1 µM)	0.082	–	–	0.087	> 128	0.21	91 (≈ 52.6 µM)	–	91 (≈ 52.6 µM)	> 128	–
CNC(CC(C)C)C(=O)NC1C(=O)NC(CC(N)=O)C(=O)NC2C(=O)NC3C(=O)NC(C(=O)NC(C(=O)O)c4cc(O)cc(O)c4-c4cc3ccc4O)C(OC3CC(C)(N)C(O)C(C)O3)c3ccc(c(Cl)c3)Oc3cc2cc(c3OC2OC(CO)C(O)C(O)C2OC2CC(C)(NCc3cccc(Oc4ccccc4)c3)C(O)C(C)O2)Oc2ccc(cc2Cl)C1O (stereo not drawn) [Compound 49]	64 (≈ 36.1 µM)	64 (≈ 36.1 µM)	–	–	–	–	–	–	0.71	55 (≈ 31 µM)	0.045	–	–	< 0.031	128 (≈ 72.1 µM)	0.083	64 (≈ 36.1 µM)	0.053	64 (≈ 36.1 µM)	128 (≈ 72.1 µM)	–
CNC(CC(C)C)C(=O)NC1C(=O)NC(CC(N)=O)C(=O)NC2C(=O)NC3C(=O)NC(C(=O)NC(C(=O)O)c4cc(O)cc(O)c4-c4cc3ccc4O)C(OC3CC(C)(N)C(O)C(C)O3)c3ccc(c(Cl)c3)Oc3cc2cc(c3OC2OC(CO)C(O)C(O)C2OC2CC(C)(NCc3ccc(Cc4ccccc4)cc3)C(O)C(C)O2)Oc2ccc(cc2Cl)C1O (stereo not drawn) [Compound 50]	64 (≈ 36.1 µM)	64 (≈ 36.1 µM)	–	–	–	–	–	–	0.12	51 (≈ 28.8 µM)	0.047	–	–	0.057	128 (≈ 72.2 µM)	0.054	64 (≈ 36.1 µM)	0.1	64 (≈ 36.1 µM)	128 (≈ 72.2 µM)	–
CNC(CC(C)C)C(=O)NC1C(=O)NC(CC(N)=O)C(=O)NC2C(=O)NC3C(=O)NC(C(=O)NC(C(=O)O)c4cc(O)cc(O)c4-c4cc3ccc4O)C(OC3CC(C)(N)C(O)C(C)O3)c3ccc(c(Cl)c3)Oc3cc2cc(c3OC2OC(CO)C(O)C(O)C2OC2CC(C)(NCc3ccc(OC4CCCCC4)cc3)C(O)C(C)O2)Oc2ccc(cc2Cl)C1O (stereo not drawn) [Compound 124]	16 (≈ 8.99 µM)	16 (≈ 8.99 µM)	≤ 0.06 µg/mL	≤ 0.06	≤ 0.06	1 (≈ 0.562 µM)	1 (≈ 0.562 µM)	0.5 (≈ 0.281 µM)	0.84	20 (≈ 11.2 µM)	0.092	1 (≈ 0.562 µM)	2 (≈ 1.12 µM)	0.041	64 (≈ 35.9 µM)	0.047	16 (≈ 8.99 µM)	–	16 (≈ 8.99 µM)	64 (≈ 35.9 µM)	MIC [4]: 4 µg/mL (≈ 2.25 µM); MIC [21]: ≤ 0.06 µg/mL; MIC [10]: 1 µg/mL (≈ 0.562 µM); MIC (Escherichia coli EC14): > 64 µg/mL; MIC (Entercoccus faecium 2041): ≤ 0.06 µg/mL; MIC [20]: 16 µg/mL (≈ 8.99 µM); MIC (Entercoccus faecium 180): ≤ 0.06 µg/mL; MIC [22]: ≤ 0.06 µg/mL; MIC [14]: ≤ 0.06 µg/mL; MIC [15]: ≤ 0.06 µg/mL
CN[C@H](CC(C)C)C(=O)N[C@H]1C(=O)N[C@@H](CC(N)=O)C(=O)N[C@H]2C(=O)N[C@H]3C(=O)N[C@H](C(=O)N[C@H](C(=O)O)c4cc(O)cc(O)c4-c4cc3ccc4O)[C@H](O[C@H]3C[C@](C)(N)[C@@H](O)[C@H](C)O3)c3ccc(c(Cl)c3)Oc3cc2cc(c3O[C@@H]2O[C@H](CO)[C@@H](O)[C@H](O)[C@H]2O[C@H]2C[C@](C)(N)[C@@H](O)[C@H](C)O2)Oc2ccc(cc2Cl)[C@H]1O [Compound A82846B, A82846B, reference compound]	> 256	–	≤ .06 µg/mL	0.125 (≈ 0.0785 µM)	0.125 (≈ 0.0785 µM)	0.125 (≈ 0.0785 µM)	0.125 (≈ 0.0785 µM)	0.125 (≈ 0.0785 µM)	29	141 (≈ 88.5 µM)	0.12	4 (≈ 2.51 µM)	1 (≈ 0.628 µM)	0.18	> 256	0.22	> 256	0.25	> 256	> 256	MIC [19]: ≤ .06 µg/mL; MIC (Entercoccus faecium 180): 8 µg/mL (≈ 5.02 µM); MIC [14]: 0.125 µg/mL (≈ 0.0785 µM); MIC [15]: 0.125 µg/mL (≈ 0.0785 µM)
